Measured values as given in patent US20100099756A1, “USES OF INCENSOLE, INCENSOLE ACETATE AND DERIVATIVES THEREOF” (YISSUM RESEARCH DEVELOPMENT COMPANY OF THE HEBREW …, priority 2006, published 2010).
One block for each molecule: values may come before it.

Assays:
Format in all cases: cell-based
[1] = target: TRPV1 (Homo sapiens, UniProt Q8NER1); assay: Calcium imaging of TRPV1-transfected HEK293 cells; details: IA 100 μM, compared to vehicle
Procedure: (§1) All error bars indicate SEM; p values in all subfigures but c represent analysis with one-way ANOVA Bonferroni's post hoc.
Human HEK 293 cells stably expressing TRPV1 were a kind gift from Merck Research Laboratories (Whitehouse Station, N.J.). Cells were cultured in minimal essential medium, Eagle, modified with non-essential amino acids, 1 mM sodium pyruvate, 2 mM L-glutamine and 1.5 g/L sodium bicarbonate (ATCC, Mabassas, Va.), containing 1% Penicillin-streptomycin, and 10% foetal bovine serum. Cells were passaged three times a week using Trypsin-EDTA 1× (Invitrogen, Carlsbad, Calif.) and grown under 5% CO2 at 37° C.
(§2) Calcium imaging of HEK 293 cells. TRPV1, TRPV3, and TRPV4 expressing HEK293 cells were plated 24-48 h before imaging in 96 well plates, loaded with 3 μM Fura-2 AM and imaged as previously described [O'dell, D. K., Rimmerman, N., Pickens, S. R. & Walker J. M. Fatty acyl amides of endogenous tetrahydroisoquinolines are active at the recombinant human TRPV1 receptor. […] Med. Chem. 15, 6164-6169 (2007)].

[2] = target: T1, rat TRPV4 (Rattus norvegicus, UniProt Q9ERZ8); assay: Calcium imaging of TRPV4 transfected HEK293 cells; details: IA 100 μM, compared to vehicle
T1 construct: expressed in transfected cells; host or cells: HEK293 cell line
T1 sequence (Q9ERZ8 whole entry): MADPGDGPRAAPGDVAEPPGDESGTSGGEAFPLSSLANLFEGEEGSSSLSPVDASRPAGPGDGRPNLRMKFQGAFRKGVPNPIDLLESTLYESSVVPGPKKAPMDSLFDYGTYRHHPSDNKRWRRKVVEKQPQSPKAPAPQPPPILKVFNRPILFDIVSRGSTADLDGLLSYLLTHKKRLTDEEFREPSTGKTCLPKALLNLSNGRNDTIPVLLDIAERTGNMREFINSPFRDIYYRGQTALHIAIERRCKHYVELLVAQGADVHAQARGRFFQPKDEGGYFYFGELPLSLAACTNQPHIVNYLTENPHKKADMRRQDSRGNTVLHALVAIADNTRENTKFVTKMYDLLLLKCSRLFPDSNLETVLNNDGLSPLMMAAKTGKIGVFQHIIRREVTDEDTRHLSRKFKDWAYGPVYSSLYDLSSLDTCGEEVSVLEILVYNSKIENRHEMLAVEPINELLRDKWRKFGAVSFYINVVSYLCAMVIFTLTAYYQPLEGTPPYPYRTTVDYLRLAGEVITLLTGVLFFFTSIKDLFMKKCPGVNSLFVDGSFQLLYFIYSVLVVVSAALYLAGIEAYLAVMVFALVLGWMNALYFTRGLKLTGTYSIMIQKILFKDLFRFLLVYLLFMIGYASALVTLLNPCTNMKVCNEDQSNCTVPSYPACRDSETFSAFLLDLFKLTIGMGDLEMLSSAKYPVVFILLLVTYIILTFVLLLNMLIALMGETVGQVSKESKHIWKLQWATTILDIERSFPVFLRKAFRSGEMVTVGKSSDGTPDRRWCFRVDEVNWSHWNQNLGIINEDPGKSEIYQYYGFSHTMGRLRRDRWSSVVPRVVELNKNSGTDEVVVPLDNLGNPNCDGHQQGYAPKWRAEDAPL
Procedure: as §1
(§3) TRPV3-YFP [O'dell, D. K., Rimmerman, N., Pickens, S. R. & Walker J. M. Fatty acyl amides of endogenous tetrahydroisoquinolines are active at the recombinant human TRPV1 receptor. Bioorg. Med. Chem. 15, 6164-6169 (2007)], TRPV4 and mock-transfected cell lines were cultured in DMEM 1× with L-glutamine (Mediatech, Inc. Herndon, Va.), containing 1% penicillin-streptomycin (Invitrogen, Carlsbad, Calif.) and 10% foetal bovine serum.
Calcium imaging of HEK 293 cells. TRPV1, TRPV3, and TRPV4 expressing HEK293 cells were plated 24-48 h before imaging in 96 well plates, loaded with 3 μM Fura-2 AM and imaged as previously described [O'dell, D. K., Rimmerman, N., Pickens, S. R. & Walker J. M. Fatty acyl amides of endogenous tetrahydroisoquinolines are active at the recombinant human TRPV1 receptor. Bioorg. Med. Chem. 15, 6164-6169 (2007)].

[3] = test system: mouse TRPV3-YFP; assay: Whole-cell voltage-clamp, TRPV3-YFP expressing HEK293 cells; details: IA 200 μM; 2-APB 100 μM; cells not expressing TRPV3
Procedure: (§4) Electrophysiological recording. Currents were recorded using whole-cell voltage-clamp. Pipettes were pulled from microcapillary glass (A-M Systems). A coverslip containing cells was transferred to a 300 μL chamber that was constantly perfused (1-2 mL/min) with external solution. Voltage protocols were generated and data were digitized and recorded using Pulse (HEKA Elektronik) software in conjunction with an Axopatch 200A amplifier (Axon Instruments), and the data analyzed using an in-house Visual Basic (Microsoft) analysis program.
(§5) The external solution contained (in mM): 120 NaCl, 5 KCl, 1 MgCl2, 2 CaCl2, 10 Glucose and 20 HEPES, pH 7.4 with NaOH. The measured charge (pC) was defined as the charge elicited between -85 and -45 mV by a ramping voltage stimulus (−85 mV to +35 mV, 0.54 mV/msec; holding potential -55 mV). Currents were sampled at 5 kHz. Experimental and control cells were alternated whenever possible. Control values were obtained from adjacent cells with no detectable YFP fluorescence, presumed to be non-TRPV3-expressing.

[4] = target: T2, mouse TRPV3-YFP (Mus musculus, UniProt Q8K424); assay: as above; details: IA 200 μM; 2-APB 100 μM; charge −85 to −45 mV
T2 construct: expressed in transfected cells
T2 sequence (Q8K424 1-791): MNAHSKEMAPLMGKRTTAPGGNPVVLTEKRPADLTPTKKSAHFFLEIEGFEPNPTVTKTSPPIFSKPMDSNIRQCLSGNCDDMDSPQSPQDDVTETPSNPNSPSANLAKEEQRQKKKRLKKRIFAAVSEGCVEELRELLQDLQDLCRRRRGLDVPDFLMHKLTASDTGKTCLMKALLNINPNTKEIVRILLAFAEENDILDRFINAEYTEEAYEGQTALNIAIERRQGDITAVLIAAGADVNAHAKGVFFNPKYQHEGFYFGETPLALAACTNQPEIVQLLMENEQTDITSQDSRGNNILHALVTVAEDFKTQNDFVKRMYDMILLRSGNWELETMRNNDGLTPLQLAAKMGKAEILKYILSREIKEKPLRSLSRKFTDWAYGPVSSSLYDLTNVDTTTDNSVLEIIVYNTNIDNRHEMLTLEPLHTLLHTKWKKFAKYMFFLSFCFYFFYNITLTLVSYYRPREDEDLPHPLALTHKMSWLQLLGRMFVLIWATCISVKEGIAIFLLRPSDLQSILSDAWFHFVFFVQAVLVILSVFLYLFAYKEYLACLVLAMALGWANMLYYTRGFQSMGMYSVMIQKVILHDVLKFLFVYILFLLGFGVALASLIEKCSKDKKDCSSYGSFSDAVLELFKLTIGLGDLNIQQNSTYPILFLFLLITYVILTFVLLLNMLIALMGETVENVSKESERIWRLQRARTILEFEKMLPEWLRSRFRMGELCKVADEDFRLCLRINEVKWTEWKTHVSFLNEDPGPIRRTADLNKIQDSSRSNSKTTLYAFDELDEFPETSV
Procedure: as §4, §5

[5] = target: T2, mouse TRPV3-YFP; assay: Calcium imaging of HEK293 cells expressing mouse TRPV3-YFP; details: IA 100 μM; 2-APB positive control
Procedure: as §1
as §3, with “Bioorg.” left out
as §2
(§6) For single cell calcium imaging, HEK293-rat TRPV2 and HEK293-mouse TRPV3-YFP expressing cells were plated on collagen-coated glass cover slips. Cells were loaded for 60 min with 3 μM Fura-2 AM.
Data analysis of calcium imaging data. Analysis of calcium imaging data was done using a non-linear regression curve fit (Graphpad 4 Prism, San Diego, Calif.). t tests and one way ANOVA were calculated using SPSS (Chicago, Ill.). In the keratinocyte experiments, drug-induced response for each cell was taken as the maximal post-drug measurements over time minus the average of the last 5 pre-drug measurements. Averaged drug responses over 30 randomly selected cells per coverslip were analyzed with two-tailed unpaired t tests.

[6] = target: T3, rat-TRPV2 (Rattus norvegicus, UniProt Q9WUD2); assay: Calcium imaging of HEK293 cells transiently transfected with rat-TRPV2; details: IA 100 μM
T3 construct: expressed in transfected cells; host or cells: HEK293 (transient, lipofectamine)
T3 sequence (Q9WUD2 whole entry): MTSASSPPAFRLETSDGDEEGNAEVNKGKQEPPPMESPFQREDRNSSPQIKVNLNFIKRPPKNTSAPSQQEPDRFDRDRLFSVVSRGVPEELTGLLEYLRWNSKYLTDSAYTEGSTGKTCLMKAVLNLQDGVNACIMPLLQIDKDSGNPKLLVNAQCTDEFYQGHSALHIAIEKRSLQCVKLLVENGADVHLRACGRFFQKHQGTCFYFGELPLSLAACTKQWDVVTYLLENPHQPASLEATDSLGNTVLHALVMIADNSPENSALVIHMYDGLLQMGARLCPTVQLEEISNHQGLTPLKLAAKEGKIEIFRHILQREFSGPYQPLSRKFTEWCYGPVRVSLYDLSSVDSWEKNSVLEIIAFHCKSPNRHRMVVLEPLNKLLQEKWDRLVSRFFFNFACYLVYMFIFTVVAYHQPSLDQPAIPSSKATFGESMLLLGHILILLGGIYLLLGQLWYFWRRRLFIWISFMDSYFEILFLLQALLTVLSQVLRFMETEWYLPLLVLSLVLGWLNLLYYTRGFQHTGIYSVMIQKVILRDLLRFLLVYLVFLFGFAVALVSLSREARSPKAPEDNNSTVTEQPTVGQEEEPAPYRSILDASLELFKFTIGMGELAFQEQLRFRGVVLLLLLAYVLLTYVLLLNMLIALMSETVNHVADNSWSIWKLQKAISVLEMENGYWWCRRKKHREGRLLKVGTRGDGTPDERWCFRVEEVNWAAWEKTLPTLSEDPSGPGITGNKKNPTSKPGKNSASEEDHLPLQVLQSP
Description: as §1
(§7) HEK293 cells were transiently transfected with a rat TRPV2 plasmid using lipofectamine reagent (Invitrogen, Carlsbad, Calif.) according to manufacturer's protocol. They were then maintained in Dulbecco's modified Eagle Medium/10% fetal calf serum supplemented with Penicillin, Streptomycin, and L-glutamine. Primary keratinocytes from TRPV3-deficient and TRPV3+/+ mouse pups (day 1-4) were harvested and cultured as described previously [Chung, M. K., Lee, H., Mizuno, A., Suzuki, M. & Caterina, M. J. TRPV3 and TRPV4 mediate warmth-evoked currents in primary mouse keratinocytes. J. Biol. Chem. 279, 21569-21575 (2004)].
as §6

[7] = target: T4, TRPV3 (Mus musculus, UniProt Q8K424); assay: Calcium imaging of TRPV3+/+ and TRPV3−/− primary keratinocytes; design: endogenous in cells; host or cells: primary keratinocytes from TRPV3+/+ mouse pups (day 1-4); TRPV3-/- cells as control; details: IA 500 μM; camphor 10 mM
T4 sequence (Q8K424 1-791): T2 sequence (Q8K424 1-791)
Description: as §7
Calcium imaging of TRPV3^+/+ and TRPV3^−/− keratinocytes. Primary keratinocytes from TRPV3-deficient and WT mouse pups (day 1-4) were harvested and cultured as described [Chung, M. K., Lee, H., Mizuno, A., Suzuki, M. & Caterina, M. J. TRPV3 and TRPV4 mediate warmth-evoked currents in primary mouse keratinocytes. J. Biol. Chem. 279, 21569-21575 (2004)].
Cells were plated on glass coverslips (10^5/cm^2) and incubated for 48-60 h, then loaded with fura-2 AM (20 μM, 0.04% pleuronic acid, 32° C. for 1 h) in imaging buffer containing (in mM): 130 NaCl, 2.5 CaCl2, 0.6 MgCl2, 10 HEPES, 1.2 NaHCO3, 10 glucose, pH 7.45. Ratiometric Ca^2+ imaging was performed as previously described [O'dell, D. K., Rimmerman, N., Pickens, S. R. & Walker J. M. Fatty acyl amides of endogenous tetrahydroisoquinolines are active at the recombinant human TRPV1 receptor. Bioorg. Med. Chem. 15, 6164-6169 (2007)]. Drug was added to the bath following a period of baseline recording. Calcium measurements were made from 30 randomly selected cells per coverslip.
Data analysis of calcium imaging data. Analysis of calcium imaging data was done using a non-linear regression curve fit (Graphpad 4 Prism, San Diego, Calif.). t tests and one way ANOVA were calculated using SPSS (Chicago, Ill.). […] Averaged drug responses over 30 randomly selected cells per coverslip were analyzed with two-tailed unpaired t tests.

[8] = test system: IκBα degradation; assay: IκBα degradation in TNFα-stimulated HeLa cells (Western blot); details: HeLa cells pre-incubated 2 hrs, then TNFα 20 ng/ml for 20 minutes
Procedure: HeLa cells were pre-incubated with IA (FIG. 1A) or IN (FIG. 1B) at the indicated concentrations for 2 hrs prior to 20 minutes exposure to TNFα (20 ng/ml). At least three more experiments were repeated with highest indicated dose, resulting similarly.
IκBα Degradation. HeLa cells were pre-incubated with IA (50 μg/ml, dissolved in ethanol) for 2 hrs, and then stimulated for 20 minutes with TNFα (20 ng/ml, Emeryville, Calif., USA). After removing the slides from plates for immonostaining (see below), proteins were extracted from remaining cells in the plates. Proteins were extracted from cells in NP-40 lysis buffer. Total protein concentration was determined using the Bradford method. Lysates were then analyzed either by Western blotting (WB).
Western Blot (WB). Following separation by SDS-PAGE, proteins were blotted to a polyvinylidene difluoride (PVDF) membrane (Millipore). The membrane was blocked in 5% (w/v) milk powder and then incubated in TBST containing the primary antibody and 2% (w/v) milk powder. All phospho-specific antibodies were purchased from Cell signaling Inc. αIκBa, αp65 and αCOX2 antibodies from Santa Cruz Inc. (California, USA). After binding of an appropriate secondary antibody coupled to horseradish peroxidase, proteins were visualized by enhanced chemiluminiscence according to the instructions of the manufacturer (Amersham Lifescience).

TRPV1, sequence (Q8NER1 whole entry): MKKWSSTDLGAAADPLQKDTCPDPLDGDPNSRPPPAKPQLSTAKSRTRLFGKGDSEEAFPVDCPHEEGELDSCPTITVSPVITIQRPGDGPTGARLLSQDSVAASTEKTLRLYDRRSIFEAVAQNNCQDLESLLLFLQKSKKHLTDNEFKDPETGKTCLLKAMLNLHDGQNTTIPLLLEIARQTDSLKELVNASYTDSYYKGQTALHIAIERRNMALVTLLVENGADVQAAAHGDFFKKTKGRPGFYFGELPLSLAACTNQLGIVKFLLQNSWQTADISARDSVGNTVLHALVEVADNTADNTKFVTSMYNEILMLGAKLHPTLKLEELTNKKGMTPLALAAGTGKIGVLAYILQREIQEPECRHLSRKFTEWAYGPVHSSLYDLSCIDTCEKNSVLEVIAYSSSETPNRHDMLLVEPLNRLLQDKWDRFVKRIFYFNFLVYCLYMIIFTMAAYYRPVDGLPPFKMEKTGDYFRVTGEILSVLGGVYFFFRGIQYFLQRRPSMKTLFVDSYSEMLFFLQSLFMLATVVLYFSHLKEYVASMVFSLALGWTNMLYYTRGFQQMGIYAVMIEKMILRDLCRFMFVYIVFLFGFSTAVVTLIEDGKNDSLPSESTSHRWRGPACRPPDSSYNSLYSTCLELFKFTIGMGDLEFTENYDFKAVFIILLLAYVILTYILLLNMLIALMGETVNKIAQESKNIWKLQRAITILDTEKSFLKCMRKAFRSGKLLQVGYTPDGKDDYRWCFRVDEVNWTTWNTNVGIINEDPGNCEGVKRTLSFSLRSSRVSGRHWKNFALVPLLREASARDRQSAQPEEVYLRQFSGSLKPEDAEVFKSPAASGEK

SMILES: CCCCCCCCCC(=O)O[C@@H]1[C@@H](C)[C@@]2(O)[C@@H](C=C(CO)C[C@@]3(O)C(=O)C(C)=C[C@@H]23)[C@@H]2C(C)(C)[C@]12OC(=O)CCCCCCCCC [4αPDD, reference compound]
calcium influx in TRPV4 transfected HEK293 cells [2]: robust calcium increase

SMILES: C/C1=C\CC2(C(C)C)CCC(C)(O2)C(O)CC/C(C)=C/CC1 (centres unmarked) [IN, incensole]
IκBα degradation [8]: inhibited IκBα degradation in a dose dependent manner

Further lines, with some results ahead:

calcium influx in TRPV1-transfected HEK293 cells [1]: robust calcium increase
SMILES: COc1cc(CNC(=O)CCCC/C=C/C(C)C)ccc1O [Capsaicin, reference compound]

current activation in TRPV3(+) HEK293 cells [4]: activates currents
calcium influx vs vehicle [5]: evoked robust calcium increases
calcium influx in rat-TRPV2 transfected HEK293 cells [6]: robustly increased calcium
SMILES: NCCOB(c1ccccc1)c1ccccc1 [2-APB, 2-aminoethyl diphenylborinate, reference compound]
current activation in TRPV3(−) control cells [3]: not in TRPV3(−) cells

calcium influx in primary keratinocytes from WT mice [7]: showed a similar effect
SMILES: CC12CCC(CC1=O)C2(C)C (centres unmarked) [Camphor, camphor, reference compound]
